The source of these data is patent publication US5140009A (Tap Pharmaceuticals, Inc., priority 1990, dated 1992).

Numbered stars: 1 amine (or outer) side, 2 acyl side, 3 side chain; on linkers, the order of the positions; unused ones are H or OH. Square brackets hold non-standard residues; d marks the D form. Peptide text beside a SMILES is read from it. * marks the point of attachment. Propanoyl(3-indol-3-yl) = O=C(CCc1c[nH]c2ccccc12)*; Propanoyl(3-(4-F-phenyl)) = O=C(CCc1ccc(F)cc1)*; Acetyl(1-naphthyl) = O=C(Cc1cccc2ccccc12)*; 1Nal = N[C@@H](Cc1cccc2ccccc12)C(=O)O; d1Nal = N[C@H](Cc1cccc2ccccc12)C(=O)O; d2Nal = N[C@H](Cc1ccc2ccccc2c1)C(=O)O; Cyclopentanecarbonyl = O=C(C1CCCC1)*; NMeY = CN[C@@H](Cc1ccc(O)cc1)C(=O)O; hhPhe = N[C@@H](CCCc1ccccc1)C(=O)O; X16 = O=C(c1cc2ccccc2[nH]1)*; Nicotinoyl = O=C(c1cccnc1)*; Morpholide = C1CN(*)CCO1; PhAc = O=C(Cc1ccccc1)*; X2 = O=C(C=Cc1ccccc1)*; X6 = O=C(CCc1ccccc1F)*; CO = O=C([*:1])[*:2]

The target of the first assay is T1, LHRH receptors (Rattus norvegicus, UniProt P30969).
T1 construct: Pituitary membranes containing LHRH receptors are prepared in batches from quick-frozen rat pituitaries; tissue Hilltop Labs; host or cells: rat pituitary membranes
T1 sequence (P30969 1-327): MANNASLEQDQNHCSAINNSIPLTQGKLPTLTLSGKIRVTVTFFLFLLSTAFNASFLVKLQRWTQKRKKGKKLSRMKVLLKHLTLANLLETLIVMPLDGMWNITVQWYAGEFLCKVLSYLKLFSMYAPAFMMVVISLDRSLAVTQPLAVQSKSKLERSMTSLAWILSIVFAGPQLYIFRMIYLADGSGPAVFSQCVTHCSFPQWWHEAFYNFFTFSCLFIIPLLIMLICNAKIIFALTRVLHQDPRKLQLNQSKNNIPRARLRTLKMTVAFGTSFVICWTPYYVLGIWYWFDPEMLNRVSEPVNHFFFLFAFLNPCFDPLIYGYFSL
Briefly: Receptor Binding (radioligand receptor binding assay). Particulars: table 3; rat pituitary membranes, radioiodinated [D-Leu^6 -des Gly^10 ]-LHRH ethyl amide 50 pM, 2 hours at 4° C.; read-out: Receptor Binding pkI (converted).
On to `CCNC(=O)[C@@H]1CCCN1C(=O)[C@H](CCCNC(=N)N)NC(=O)[C@H](CC(C)C)NC(=O)[C@@H](CCCNC(=N)N)NC(=O)[C@H](Cc1ccc(O)cc1)NC(=O)[C@H](CO)NC(=O)Cc1cccc2ccccc12` [Compound 37, (4-9)[N-(1-Naphthylacetyl)-Ser^4 -D-Arg^6 -Pro^9 -NHEt] LHRH] ({Acetyl(1-naphthyl)}-SY[dR]LRP-NHEt), for which the Ki was 20.4 nM.

For the molecule `CCNC(=O)[C@@H]1CCCN1C(=O)[C@H](CCCNC(=N)N)NC(=O)[C@H](CC(C)C)NC(=O)[C@@H](Cc1c[nH]c2ccccc12)NC(=O)[C@H](Cc1ccc(O)cc1)NC(=O)[C@H](CO)NC(=O)[C@H](Cc1c[nH]c2ccccc12)NC(=O)CCc1ccccc1F` [Compound 88, (3-9)[N-(3-(2-Fluorophenyl)propionyl) -Trp^3 -D-Trp^6 -Pro^9 NHEt]LHRH] (X6-WSY[dW]LRP-NHEt), the Ki was 0.0575 nM. On the same count and under the same terms, the figure for `CCNC(=O)[C@@H]1CCCN1C(=O)[C@H](CCCNC(=N)N)NC(=O)[C@H](CC(C)C)NC(=O)[C@@H](CC(C)C)NC(=O)[C@H](Cc1ccc(O)cc1)NC(=O)[C@H](CO)NC(=O)[C@H](Cc1c[nH]c2ccccc12)NC(=O)Cc1ccccc1` [Compound 68, (3-9)[N-(Phenylacetyl)-Trp^3 -D-Leu^6 -Pro^9 -NHEt]LHRH] (PhAc-WSY[dL]LRP-NHEt) is 21.9 nM; for `CCNC(=O)[C@@H]1CCCN1C(=O)[C@H](CCCNC(=N)N)NC(=O)[C@H](CC(C)C)NC(=O)[C@@H](CCCNC(=N)N)NC(=O)[C@H](Cc1ccc(O)cc1)NC(=O)[C@H](CO)NC(=O)CCc1c[nH]c2ccccc12` [Compound 35, (4-9)[N-(3-(3-Indole)propionyl)-Ser^4 -D-Arg^6 -Pro^9 -NHEt]LHRH] ({Propanoyl(3-indol-3-yl)}-SY[dR]LRP-NHEt) it is 204 nM; for `CC(C)C[C@H](NC(=O)[C@@H](Cc1ccc2ccccc2c1)NC(=O)[C@H](Cc1ccc(O)cc1)NC(=O)[C@H](CO)NC(=O)CCc1c[nH]c2ccccc12)C(=O)N[C@@H](CCCNC(=N)N)C(=O)N1CCC[C@H]1C(=O)NCC(N)=O` [Compound 47, N-(3-(3-Indole)propionyl)-Ser-Tyr-D-2-Nal-Leu-Arg-Pro-Gly-NH2] ({Propanoyl(3-indol-3-yl)}-SY[d2Nal]LRPG-NH2) it is 4.27 nM. Take `CCNC(=O)[C@@H]1CCCN1C(=O)[C@H](CCCN=C(N)N)NC(=O)[C@H](CC(C)C)NC(=O)[C@@H](Cc1c[nH]c2ccccc12)NC(=O)[C@H](Cc1ccc(O)cc1)NC(=O)[C@H](CO)NC(=O)[C@H](Cc1c[nH]c2ccccc12)NC(=O)c1cc2ccccc2[nH]1` [Compound 101, (3-9)[N-(2-Indolecarbonyl)-Trp^3 -D-Trp^6 -Pro^9 NHEt]LHRH] (X16-WSY[dW]LRP-NHEt): the Ki is 12.6 nM. On the same count and under the same terms, under `CCNC(=O)[C@@H]1CCCN1C(=O)[C@H](CCCNC(=N)N)NC(=O)[C@H](CC(C)C)NC(=O)[C@@H](Cc1c[nH]c2ccccc12)NC(=O)[C@H](Cc1ccc(O)cc1)NC(=O)[C@H](CO)NC(=O)[C@H](Cc1c[nH]c2ccccc12)NC(=O)CCc1ccc(F)cc1` [Compound 97, (3-9)[N-(3-(4-Fluorophenyl)propionyl) -Trp^3 -D-Trp^6 -Pro^9 NHEt]LHRH] ({Propanoyl(3-(4-F-phenyl))}-WSY[dW]LRP-NHEt) stands 0.0331 nM; under `CCNC(=O)[C@@H]1CCCN1C(=O)[C@H](CCCNC(=N)N)NC(=O)[C@H](CC(C)C)NC(=O)[C@@H](Cc1c[nH]c2ccccc12)NC(=O)[C@H](Cc1ccc(O)cc1)NC(=O)[C@H](CO)NC(=O)[C@H](Cc1ccc(O)cc1)N(C)C(=O)[C@H](Cc1ccccc1)NC(=O)N1CCOCC1` [Compound 116, (2-9)[N-(N-alpha-Morpholinocarbonyl)-Phe^2 -N-Me-Tyr^3 -D-Trp^6-Pro^9 NHEt]LHRH] ({Morpholide-CO}-F[NMeY]SY[dW]LRP-NHEt), 5.01 nM. On the same count and under the same terms, under `CCNC(=O)[C@@H]1CCCN1C(=O)[C@H](CCCNC(=N)N)NC(=O)[C@H](CC(C)C)NC(=O)[C@@H](Cc1c[nH]c2ccccc12)NC(=O)[C@H](Cc1ccc(O)cc1)NC(=O)[C@H](CO)NC(=O)C=Cc1ccccc1` [Compound 15, (4-9)[N-(cinnamoyl)-Ser^4 -D-Trp^6 -Pro^9 -NHEt] LHRH] (X2-SY[dW]LRP-NHEt) stands 7.76 nM; under `CCNC(=O)[C@@H]1CCCN1C(=O)[C@H](CCCNC(=N)N)NC(=O)[C@H](CC(C)C)NC(=O)[C@@H](CCCNC(=N)N)NC(=O)[C@H](Cc1ccc(O)cc1)NC(=O)[C@H](CO)NC(=O)[C@H](Cc1c[nH]c2ccccc12)NC(=O)[C@H](Cc1ccccc1)NC(=O)C1CCCC1` [Compound 70, N-(Cyclopentylcarbonyl)-Phe-Trp-Ser-Tyr-D-Arg-Leu-Arg-Pro-NHEt] (Cyclopentanecarbonyl-FWSY[dR]LRP-NHEt), 0.145 nM. On the same count and under the same terms, under `CCNC(=O)[C@@H]1CCCN1C(=O)[C@H](CCCN=C(N)N)NC(=O)[C@H](CC(C)C)NC(=O)[C@@H](CCCCNC(=O)c1cccnc1)NC(=O)[C@H](Cc1ccc(O)cc1)NC(=O)[C@H](CO)NC(=O)[C@H](Cc1c[nH]c2ccccc12)NC(=O)CCc1ccc(F)cc1` [Compound 119, N-(3-(4-Fluorophenyl)propionyl)-Trp-Ser-Tyr-D-Lys(Nic) -Leu-Arg-Pro-NHEt] ({Propanoyl(3-(4-F-phenyl))}-WSY[dK](Nicotinoyl)LRP-NHEt) stands 0.347 nM; under `CCNC(=O)[C@@H]1CCCN1C(=O)[C@H](CCCNC(=N)N)NC(=O)[C@H](CC(C)C)NC(=O)[C@@H](Cc1ccc(O)cc1)NC(=O)[C@H](Cc1ccc(O)cc1)NC(=O)[C@H](CO)NC(=O)[C@@H](Cc1ccc(O)cc1)NC(=O)CCc1ccc(F)cc1` [Compound 93, (3-9)[N-(3-(4-Fluorophenyl)propionyl) -D-Tyr^3,6 -Pro^9 NHEt]LHRH] ({Propanoyl(3-(4-F-phenyl))}-[dY]SY[dY]LRP-NHEt), 0.0158 nM.

The same assay, now with this note: table 4; rat pituitary membranes, radioligand 50 pM, 2 hours at 4° C.; read-out: Receptor Binding pkI (converted).
Take `CC(C)C[C@H](NC(=O)[C@@H](CCCCN)NC(=O)[C@H](Cc1ccc(O)cc1)N(C)C(=O)[C@H](CCCc1ccccc1)NC(=O)[C@@H](Cc1cccc2ccccc12)NC(=O)CCc1ccc(F)cc1)C(=O)N[C@@H](CCCNC(=N)N)C(=O)N1CCC[C@H]1C(=O)N[C@H](C)C(N)=O` [Compound 176, (3-10)[N-(3-(4-Fluorophenyl)propionyl)-D-1-Nal^3-hhPhe^4 -NMeTyr^5 -D-Lys^6 -D-Ala^10]LHRH] ({Propanoyl(3-(4-F-phenyl))}-[d1Nal][hhPhe][NMeY][dK]LRP[dA]-NH2): the Ki was 2.88 nM.

For the molecule `CC(C)C[C@H](NC(=O)[C@@H](Cc1c[nH]c2ccccc12)NC(=O)[C@H](Cc1ccc(O)cc1)N(C)C(=O)[C@H](CO)NC(=O)[C@@H](Cc1c[nH]c2ccccc12)NC(=O)[C@H](Cc1cccc2ccccc12)NC(=O)N1CCOCC1)C(=O)N[C@@H](CCCNC(=N)N)C(=O)N1CCC[C@H]1C(=O)N[C@H](C)C(N)=O` [Compound 221, (2-10)[N-(alpha-Morpholinocarbonyl)-1-Nal^2 -D-Trp^3,6 -NMeTyr^5 -D-Ala^10]LHRH] ({Morpholide-CO}-[1Nal][dW]S[NMeY][dW]LRP[dA]-NH2), the Ki was 0.204 nM.

Regarding `CCNC(=O)[C@@H]1CCCN1C(=O)[C@H](CCCN=C(N)N)NC(=O)[C@H](CC(C)C)NC(=O)[C@@H](Cc1ccc(O)cc1)NC(=O)[C@H](Cc1ccc(O)cc1)NC(=O)[C@H](CO)NC(=O)[C@@H](Cc1c[nH]c2ccccc12)NC(=O)CCc1ccc(F)cc1` [Compound 150, (3-9)[N-(3-(4-Fluorophenyl)propionyl) -D-Trp^3 -D-Tyr^6 -Pro^9 NHEt]LHRH] ({Propanoyl(3-(4-F-phenyl))}-[dW]SY[dY]LRP-NHEt), the Ki is 0.0102 nM.
